Results: ChEMBL document CHEMBL5346958 (J Med Chem, 2023)
Changes are numbered by the printed parent chain.

Key:
[1] = biological target: T1, Aldo-keto reductase family 1 member C1 (Homo sapiens, UniProt Q04828); assay: Inhibition of recombinant AKR1C1 (unknown origin) dehydrogenase activity by measuring NADH formation by spectrophotometry
T1 sequence (Q04828 whole entry): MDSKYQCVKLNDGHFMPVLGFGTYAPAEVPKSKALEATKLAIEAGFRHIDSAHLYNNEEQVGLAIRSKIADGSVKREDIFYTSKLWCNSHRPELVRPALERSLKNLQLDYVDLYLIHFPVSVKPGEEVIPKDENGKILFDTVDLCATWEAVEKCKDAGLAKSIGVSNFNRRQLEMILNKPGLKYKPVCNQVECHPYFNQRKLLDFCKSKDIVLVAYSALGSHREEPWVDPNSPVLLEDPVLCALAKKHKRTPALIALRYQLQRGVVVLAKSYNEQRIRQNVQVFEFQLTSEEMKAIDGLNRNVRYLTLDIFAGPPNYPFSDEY

[2] = biological target: T2, Aldo-keto reductase family 1 member C2 (Homo sapiens, UniProt P52895); assay: Inhibition of recombinant AKR1C2 (unknown origin) dehydrogenase activity by measuring NADH formation by spectrophotometry
T2 sequence (P52895 whole entry): T1 sequence (Q04828 whole entry) with T38V, R47H, L54V, C87S, V151M, R170H, Q172L

[3] = species on record: Homo sapiens; assay: Selectivity ratio of IC50 for AKR1C2 (unknown origin) to IC50 for AKR1C3 (unknown origin)
[4] = Stability of compound in SGF assessed as compound remaining after 1 hrs; format: ADME; settings: simulated gi fluid
[5] = Stability of compound in SIF assessed as compound remaining after 2 hrs; format: ADME; settings: simulated gi fluid
[6] = Metabolic stability in mouse plasma assessed as formation of (E)-3-(3-(11,2,4)triazolo(1,5-alpyridin-6-y1)-5-((4-methylbenzy1)-carbamoyl)phenyl)acrylic acid; format: ADME, cell-free
[7] = Stability on mouse plasma assessed as compound remaining measured at 30 mins; format: ADME, cell-free; settings: 0.5 h
[8] = Metabolic stability in human liver microsomes assessed as compound degradation by LC-MS/MS analysis; format: ADME, Microsome; settings: read-out: Drug degradation
[9] = Metabolic stability in mouse liver microsomes assessed as compound degradation by LC-MS/MS analysis; format: ADME, Microsome; settings: read-out: Drug degradation
[10] = Prodrug conversion in human liver microsomes assessed as formation of (E)-3-(3-(11,2,4)triazolo(1,5-alpyridin-6-y1)-5-((4-methylbenzy1)-carbamoyl)phenyl)acrylic acid over 60 mins; format: ADME, Microsome; settings: 1 h
[11] = Prodrug conversion in mouse liver microsomes assessed as formation of (E)-3-(3-(11,2,4)triazolo(1,5-alpyridin-6-y1)-5-((4-methylbenzy1)-carbamoyl)phenyl)acrylic acid over 60 mins; format: ADME, Microsome; settings: 1 h
[12] = Half life in BALB/c mouse assessed as (E)-3-(3-(11,2,4)triazolo(1,5-alpyridin-6-y1)-5-((4-methylbenzy1)-carbamoyl)phenyl)acrylic acid at 10 mg/kg, po measured upto 24 hrs; format: ADME, organism-based; settings: in vivo
[13] = Tmax in BALB/c mouse at 10 mg/kg, po measured upto 24 hrs; format: ADME, organism-based; settings: in vivo
[14] = Tmax in BALB/c mouse assessed as (E)-3-(3-(11,2,4)triazolo(1,5-alpyridin-6-y1)-5-((4-methylbenzy1)-carbamoyl)phenyl)acrylic acid at 10 mg/kg, po measured upto 24 hrs; format: ADME, organism-based; settings: in vivo
[15] = Cmax in BALB/c mouse at 10 mg/kg, po measured upto 24 hrs; format: ADME, organism-based; design: dose 10 mg/kg, time < 24 hrs, route po; settings: in vivo
[16] = Cmax in BALB/c mouse assessed as (E)-3-(3-(11,2,4)triazolo(1,5-alpyridin-6-y1)-5-((4-methylbenzy1)-carbamoyl)phenyl)acrylic acid at 10 mg/kg, po measured upto 24 hrs; format: ADME, organism-based; design: dose 10 mg/kg, time < 24 hrs, route po; settings: in vivo
[17] = AUC (0 to t) in BALB/c mouse at 10 mg/kg, po measured upto 24 hrs; format: ADME, organism-based; design: time < 24 hrs, dose 10 mg/kg, route po; settings: in vivo
[18] = AUC (0 to t) in BALB/c mouse assessed as (E)-3-(3-(11,2,4)triazolo(1,5-alpyridin-6-y1)-5-((4-methylbenzy1)-carbamoyl)phenyl)acrylic acid at 10 mg/kg, po measured upto 24 hrs; format: ADME, organism-based; design: dose 10 mg/kg, time < 24 hrs, route po; settings: in vivo
[19] = AUC (0 to infinity) in BALB/c mouse assessed as (E)-3-(3-(11,2,4)triazolo(1,5-alpyridin-6-y1)-5-((4-methylbenzy1)-carbamoyl)phenyl)acrylic acid at 10 mg/kg, po measured upto 24 hrs; format: ADME, organism-based; design: time < 24 hrs, dose 10 mg/kg, route po; settings: in vivo
[20] = test system: CWR22R; assay: Antitumor activity against human 22Rv1 cells xenografted in NSG mouse tumor model assessed as reduction in tumor volume at 25 mg/kg, ip treated for 26 days relative to control; format: functional; settings: 22Rv1, 624 h, time 26 day
[21] = test system: CWR22R; assay: Antitumor activity against human 22Rv1 cells xenografted in NSG mouse tumor model assessed as reduction in tumor volume at 50 mg/kg, ip treated for 26 days relative to control; format: functional; settings: 22Rv1, 624 h, time 26 day
[22] = Toxicity in NSG mouse xenografted with human 22Rv1 cells assessed as body weight loss at 25 to 50 mg/kg, ip treated for 26 days; format: organism-based, CWR22R; settings: in vivo, 624 h, dose 25-50 mg/kg, time 26 day
[23] = biological target: T3, Aldo-keto reductase family 1 member C3 (Homo sapiens, UniProt P42330); assay: Inhibition of recombinant AKR1C3 (unknown origin) dehydrogenase activity by measuring NADH formation by spectrophotometry
T3 sequence (P42330 whole entry): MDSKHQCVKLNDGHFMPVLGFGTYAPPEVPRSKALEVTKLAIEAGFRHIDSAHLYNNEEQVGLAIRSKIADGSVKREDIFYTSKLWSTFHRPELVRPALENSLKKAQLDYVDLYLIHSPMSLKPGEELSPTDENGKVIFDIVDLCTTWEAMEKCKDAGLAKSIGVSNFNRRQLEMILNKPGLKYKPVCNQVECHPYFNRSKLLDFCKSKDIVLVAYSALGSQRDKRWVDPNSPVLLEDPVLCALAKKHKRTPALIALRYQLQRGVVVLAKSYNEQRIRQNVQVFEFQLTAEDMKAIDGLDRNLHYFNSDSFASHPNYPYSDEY

[24] = biological target: T3, Aldo-keto reductase family 1 member C3; assay: Inhibition of AKR1C3 (unknown origin)
[25] = biological target: T4, Aldo-keto reductase family 1 member C1 (Homo sapiens) (UniProt Q04828); assay: Inhibition of recombinant AKR1C1 (unknown origin) dehydrogenase activity at 100 uM by measuring NADH formation by spectrophotometry relative to control
T4 sequence (whole entry): T1 sequence (Q04828 whole entry)

[26] = Half life in BALB/c mouse at 10 mg/kg, po measured upto 24 hrs; format: ADME, organism-based; settings: in vivo
[27] = AUC (0 to infinity) in BALB/c mouse at 10 mg/kg, po measured upto 24 hrs; format: ADME, organism-based; design: time < 24 hrs, dose 10 mg/kg, route po; settings: in vivo
[28] = Extrapolated AUC in BALB/c mouse at 10 mg/kg, po measured upto 24 hrs; format: ADME, organism-based; settings: in vivo
[29] = Apparent volume of distribution during terminal phase in BALB/c mouse at 10 mg/kg, po measured upto 24 hrs; format: ADME, organism-based; settings: in vivo
[30] = Apparent oral clearance in BALB/c mouse at 10 mg/kg, po measured upto 24 hrs; format: ADME, organism-based; settings: in vivo

Cc1ccc(CNC(=O)c2cc(/C=C/C(=O)O)cc(-c3ccccc3)c2)cc1
IC50 [1]: > 100 µM
IC50 [2]: > 100 µM
Ratio IC50 [3]: > 2500

Cc1ccc(CNC(=O)c2cc(/C=C/C(=O)O)cc(-c3ccc(F)cc3)c2)cc1
IC50 [1]: > 100 µM
Ratio IC50 [3]: 600

Cc1ccc(CNC(=O)c2cc(C#CC3CC3)cc(/C=C/C(=O)O)c2)cc1
Ratio IC50 [3]: 74

Cc1ccc(CNC(=O)c2cc(/C=C/C(=O)O)cc(-c3ccc4ccccc4c3)c2)cc1
Ratio IC50 [3]: 140

Cc1ccc(CNC(=O)c2cc(/C=C/C(=O)O)cc(-c3ccc(-c4ccccc4)cc3)c2)cc1
Ratio IC50 [3]: 580

COC(=O)/C=C/c1cc(C(=O)NCc2ccc(C)cc2)cc(-c2ccc3ncnn3c2)c1
Stability [4]: Stable
Stability [5]: Stable
Drug metabolism [6]: Metabolite_Detected
Stability [7]: Unstable
metabolised [8]: 25%
metabolised [9]: 25%
Drug metabolism [10]: Metabolite_Detected
Drug metabolism [11]: Metabolite_Detected
t1/2 [12]: 534 min
Tmax [13]: 19 min
Tmax [14]: 12 min
Cmax [15]: 92.796 ng/mL
Cmax [16]: 11599.4 ng/mL
AUCt [17]: 36.416 ng·h/mL
AUCt [18]: 6382.8 ng·h/mL
AUC [19]: 6550.1 ng·h/mL
inhibition in vivo at 25 mg/kg [20]: 30%
inhibition in vivo at 50 mg/kg [21]: 45%
Activity [22]: Non-Toxic

Cc1ccc(CNC(=O)c2cc(/C=C/C(=O)O)cc(-c3cccc(F)c3)c2)cc1
IC50 [1]: > 100 µM
Ratio IC50 [3]: 960

Cc1ccc(CNC(=O)c2cc(/C=C/C(=O)O)cc(-c3ccc(CN4CCOCC4)c(F)c3)c2)cc1
Ratio IC50 [3]: 16

Cc1ccc(CNC(=O)c2cc(/C=C/C(=O)O)cc(-c3ccc4c(c3)OCCO4)c2)cc1
IC50 [1]: > 100 µM
Ratio IC50 [3]: 200

Cc1ccc(CNC(=O)c2cc(Br)cc(/C=C/C(=O)O)c2)cc1
IC50 [1]: > 100 µM
IC50 [2]: > 100 µM
Ratio IC50 [3]: > 333

Cc1ccc(CNC(=O)c2cc(C#Cc3ccccc3)cc(/C=C/C(=O)O)c2)cc1
Ratio IC50 [3]: 61

Cc1ccc(CNC(=O)c2cc(/C=C/C(=O)O)cc(-c3ccc4cccnc4c3)c2)cc1
Ratio IC50 [3]: 109

Cc1ccc(CNC(=O)c2cc(/C=C/C(=O)O)cc(CC(C)c3ccccc3)c2)cc1 (centres undefined)
Ratio IC50 [3]: 177

Cc1ccc(CNC(=O)c2cc(/C=C/C#N)cc(-c3ccc(Oc4ccccc4)cc3)c2)cc1
IC50 [23]: 1.4 µM

Cc1ccc(CNC(=O)c2cc(/C=C/C(=O)O)cc(-c3ccc(Oc4ccccc4)cc3)c2)cc1
Ratio IC50 [3]: 51

C/C=C/Cc1cc(/C=C/C(=O)O)cc(C(=O)NCc2ccc(C)cc2)c1
IC50 [1]: > 100 µM
Ratio IC50 [3]: 354

Cc1ccc(CNC(=O)c2cc(/C=C/C(=O)O)cc(-c3ccccc3F)c2)cc1
IC50 [1]: > 100 µM
IC50 [2]: > 100 µM
Ratio IC50 [3]: > 1430

C/C=C\Cc1cc(/C=C/C(=O)O)cc(C(=O)NCc2ccc(C)cc2)c1
Ratio IC50 [3]: 200

Cc1ccc(CNC(=O)c2cc(/C=C/C(=O)O)cc(-c3ccc(-n4c5ccccc5c5ccccc54)cc3)c2)cc1
Ratio IC50 [3]: 221

CN(CCC(=O)O)C(=O)c1ccc2c(c1)CC[C@@H]1[C@@H]2CC[C@]2(C)C(c3cncc(F)c3)=CC[C@@H]12
IC50 [24]: 0.0018 µM

CC(C)=CCc1cc(/C=C/C#N)cc(C(=O)NCc2ccc(C)cc2)c1
IC50 [23]: 2.7 µM

Cc1ccc(CNC(=O)c2cc(/C=C/C(=O)O)cc(-c3ccc4c(c3)OCO4)c2)cc1
IC50 [1]: > 100 µM

CC[C@@H](NC(=O)c1cc(/C=C/C(=O)O)cc(-c2ccc(C(C)C)cc2)c1)c1ccccc1
Ratio IC50 [3]: 51

Cc1ccc(CNC(=O)c2cc(/C=C/C(=O)O)cc(-c3ccc4ncnn4c3)c2)cc1
IC50 [1]: > 100 µM
Ratio IC50 [3]: 1220
inhibition [25]: 8%
Stability [4]: Stable
Stability [5]: Stable
t1/2 [26]: 864 min
Tmax [13]: 6 min
Cmax [15]: 174.8 ng/mL
AUCt [17]: 367.6 ng·h/mL
AUC [27]: 515.1 ng·h/mL
%AUCextra [28]: 28.8%
Vz/F [29]: 405 L/kg
CL/F [30]: 323 mL/min/kg

Cc1ccc(CNC(=O)c2cc(/C=C/C(=O)O)cc(-c3ccc(C)cc3)c2)cc1
Ratio IC50 [3]: 160

Cc1ccc(CNC(=O)c2cc(/C=C/C(=O)O)cc(-c3ccc4nccnc4c3)c2)cc1
Ratio IC50 [3]: 133

CC(C)=CCOc1cc(/C=C/C(=O)O)cc(C(=O)NCc2ccc(C)cc2)c1
Ratio IC50 [3]: 187

Cc1ccc(CNC(=O)c2cc(/C=C/C(=O)O)cc(-c3ccc(Cl)cc3)c2)cc1
IC50 [1]: > 100 µM
Ratio IC50 [3]: 333
